Data as given in patent US10681909B2, “Herbicidal triazoles” (FMC Corporation, priority 2014, dated 2020).

Assays:
[1] = tested on: galium; experiment: Test C preemergence; format: in vivo, Galium aparine; settings: for Plant response rating (scale of 0 to 100 where 0 is no effect and 100 is complete control): Galium, preemergence; for Galium plant response rating (0 to 100): Preemergence, visual rating after 13 to 15 d
Description: (§1) Seeds of plant species selected from blackgrass (Alopecurus myosuroides), ryegrass, Italian (Italian ryegrass, Lolium multiflorum), wheat (winter wheat, Triticum aestivum), galium (catchweed bedstraw, Galium aparine), corn (Zea mays), crabgrass, large (large crabgrass, Digitaria sanguinalis), foxtail, giant, (giant foxtail, Setaria faberii), johnsongrass (Sorghum halepense), lambsquarters (Chenopodium album), morningglory (Ipomoea coccinea), nutsedge, yellow (yellow nutsedge, Cyperus esculentus), pigweed (Amaranthus retroflexus), ragweed (common ragweed, Ambrosia elatior), soybean (Glycine max), barnyardgrass (Echinochloa crus-galli), oilseed rape (Brassica napus), waterhemp (common waterhemp, Amaranthus rudis), and velvetleaf (Abutilon theophrasti) were planted into a blend of loam soil and sand and treated preemergence with test chemicals formulated in a non-phytotoxic solvent mixture which included a surfactant. At the same time, plants selected from these crop and weed species and also chickweed (common chickweed, Stellaria media), oat, wild (wild oat, Avena fatua), and kochia (Kochia scoparia), were planted in pots containing Sunshine Redi-Earth® planting medium comprising spaghnum peat moss, vermiculite, starter nutrients and dolomitic limestone and treated with postemergence applications of test chemicals formulated in the same manner. Plants ranged in height from 2 to 18 cm (1- to 4-leaf stage) for postemergence treatments. […] A dash (-) response means no test result.

[2] = tested on: corn; experiment: Test C preemergence; format: in vivo, Zea mays; settings: for Plant response rating (scale of 0 to 100 where 0 is no effect and 100 is complete control): Corn, preemergence; for Corn plant response rating (0 to 100): Preemergence, visual rating after 13 to 15 d
Description: as §1

[3] = tested on: foxtail, giant; experiment: Test C preemergence; format: in vivo, Setaria faberii; settings: for Plant response rating (scale of 0 to 100 where 0 is no effect and 100 is complete control): Foxtail, Giant, preemergence; for Foxtail, Giant plant response rating (0 to 100): Preemergence, visual rating after 13 to 15 d
Description: as §1

[4] = tested on: lambsquarters; experiment: Test C preemergence; format: in vivo, Chenopodium album; settings: for Plant response rating (scale of 0 to 100 where 0 is no effect and 100 is complete control): Lambsquarters, preemergence; for Lambsquarters plant response rating (0 to 100): Preemergence, visual rating after 13 to 15 d
Description: as §1

[5] = tested on: ragweed; experiment: Test C preemergence; format: in vivo, Ambrosia elatior; settings: for Ragweed plant response rating (0 to 100): Preemergence, visual rating after 13 to 15 d; for Plant response rating (scale of 0 to 100 where 0 is no effect and 100 is complete control): Ragweed, preemergence
Description: as §1

[6] = tested on: barnyardgrass; experiment: Test C preemergence; format: in vivo, Echinochloa crus-galli; settings: for Plant response rating (scale of 0 to 100 where 0 is no effect and 100 is complete control): Barnyardgrass, preemergence; for Barnyardgrass plant response rating (0 to 100): Preemergence, visual rating after 13 to 15 d
Description: as §1

[7] = tested on: velvetleaf; experiment: Test C preemergence; format: in vivo, Abutilon theophrasti; settings: for Velvetleaf plant response rating (0 to 100): Preemergence, visual rating after 13 to 15 d
Description: as §1

[8] = tested on: bromegrass, down; experiment: Test D preemergence; format: in vivo, Bromus tectorum; settings: for Plant response rating: Bromegrass, Down: scale 0 to 100
Description: (§2) Seeds of plant species selected from bluegrass (annual bluegrass, Poa annua), blackgrass (Alopecurus myosuroides), canarygrass (Phalaris minor), chickweed (common chickweed, Stellaria media), galium (catchweed bedstraw, Galium aparine), bromegrass, down (downy bromegrass, Bromus tectorum), Russian thistle (Salsola kali), field poppy (Papaver rhoeas), field violet (Viola arvensis), foxtail, green (green foxtail, Setaria viridis), deadnettle (henbit deadnettle, Lamium amplexicaule), ryegrass, Ital. (Italian ryegrass, Lolium multiflorum), kochia (Kochia scoparia), lambsquarters (Chenopodium album), oilseed rape (Brassica napus), pigweed (Amaranthus retroflexus), chamomile (scentless chamomile, Matricaria inodora), speedwell (bird's-eye speedwell, Veronica persica), barley, spring (spring barley, Hordeum vulgare), wheat, spring (spring wheat, Triticum aestivum), buckwheat, wild (wild buckwheat, Polygonum convolvulus), wild mustard (Sinapis arvensis), oat, wild (wild oat, Avena fatua), radish, wild (wild radish, Raphanus raphanistrum), […]), barley, winter (winter barley, Hordeum vulgare), and wheat, winter (winter wheat, Triticum aestivum) were planted into a silt loam soil and treated preemergence with test chemicals formulated in a non-phytotoxic solvent mixture which included a surfactant. At the same time, these species were planted in pots containing Sunshine Redi-Earth® planting medium comprising spaghnum peat moss, vermiculite, starter nutrients and dolomitic limestone and treated with postemergence applications of the test chemicals formulated in the same manner. Plants ranged in height from 2 to 18 cm (1- to 4-leaf stage). Treated plants and controls were maintained in a controlled growth environment for 14 to 21 d after which time all species were compared to controls and visually evaluated. […] A dash (-) response means no test result.

[9] = tested on: barley, spring; experiment: Test D preemergence; format: in vivo, Hordeum vulgare; settings: for Plant response rating: Barley, Spring: scale 0 to 100
Description: as §2

[10] = tested on: barley, winter; experiment: Test D preemergence; format: in vivo, Hordeum vulgare; settings: for Plant response rating: Barley, Winter: scale 0 to 100
Description: as §2

[11] = tested on: wheat, spring; experiment: Test D preemergence; format: in vivo, Triticum aestivum; settings: for Plant response rating: Wheat, Spring: scale 0 to 100
Description: as §2

[12] = tested on: wheat, winter; experiment: Test D preemergence; format: in vivo, Triticum aestivum; settings: for Plant response rating: Wheat, Winter: scale 0 to 100
Description: as §2

[13] = tested on: oat, wild; experiment: Test D preemergence; format: in vivo, Avena fatua; settings: for Plant response rating: Oat, Wild: scale 0 to 100
Description: as §2

[14] = tested on: windgrass; experiment: Test D preemergence; format: in vivo, Apera spica-venti; settings: for Plant response rating: Windgrass: scale 0 to 100
Description: as §2

[15] = tested on: canarygrass; experiment: Test D postemergence; format: in vivo, Phalaris minor; settings: scale 0 to 100
Description: as §2

[16] = tested on: chickweed; experiment: Test D postemergence; format: in vivo, Stellaria media; settings: scale 0 to 100
Description: as §2

[17] = tested on: foxtail, green; experiment: Test D postemergence; format: in vivo, Setaria viridis; settings: scale 0 to 100
Description: as §2

[18] = 16 g ai/ha, 0 is no effect, 100 is complete control

COc1nc(-c2ccccc2)nn1Cc1ccnc(C(F)(F)F)c1 [Compound 32]
Plant response rating (scale of 0 to 100 where 0 is no effect and 100 is complete control) ([1]; 125 g ai/ha): 60
Plant response rating (scale of 0 to 100 where 0 is no effect and 100 is complete control) ([1]; 250 g ai/ha): 80
Galium plant response rating (0 to 100) ([1]; 31 g ai/ha): 0
Galium plant response rating (0 to 100) ([1]; 62 g ai/ha): 0
Plant response rating (scale of 0 to 100 where 0 is no effect and 100 is complete control) ([2]; 125 g ai/ha): 5
Plant response rating (scale of 0 to 100 where 0 is no effect and 100 is complete control) ([2]; 250 g ai/ha): 20
Corn plant response rating (0 to 100) ([2]; 31 g ai/ha): 0
Corn plant response rating (0 to 100) ([2]; 62 g ai/ha): 0
Plant response rating (scale of 0 to 100 where 0 is no effect and 100 is complete control) ([3]; 125 g ai/ha): 85
Plant response rating (scale of 0 to 100 where 0 is no effect and 100 is complete control) ([3]; 250 g ai/ha): 100
Foxtail, Giant plant response rating (0 to 100) ([3]; 31 g ai/ha): 5
Foxtail, Giant plant response rating (0 to 100) ([3]; 62 g ai/ha): 70
Plant response rating (scale of 0 to 100 where 0 is no effect and 100 is complete control) ([4]; 125 g ai/ha): 80
Plant response rating (scale of 0 to 100 where 0 is no effect and 100 is complete control) ([4]; 250 g ai/ha): 90
Lambsquarters plant response rating (0 to 100) ([4]; 31 g ai/ha): 60
Lambsquarters plant response rating (0 to 100) ([4]; 62 g ai/ha): 60
Ragweed plant response rating (0 to 100) ([5]; 31 g ai/ha): 0
Ragweed plant response rating (0 to 100) ([5]; 62 g ai/ha): 5
Plant response rating (scale of 0 to 100 where 0 is no effect and 100 is complete control) ([5]; 125 g ai/ha): 10
Plant response rating (scale of 0 to 100 where 0 is no effect and 100 is complete control) ([5]; 250 g ai/ha): 65
Plant response rating (scale of 0 to 100 where 0 is no effect and 100 is complete control) ([6]; 125 g ai/ha): 10
Plant response rating (scale of 0 to 100 where 0 is no effect and 100 is complete control) ([6]; 250 g ai/ha): 75
Barnyardgrass plant response rating (0 to 100) ([6]; 31 g ai/ha): 0
Barnyardgrass plant response rating (0 to 100) ([6]; 62 g ai/ha): 5
Velvetleaf plant response rating (0 to 100) ([7]; 31 g ai/ha): 20
Velvetleaf plant response rating (0 to 100) ([7]; 62 g ai/ha): 10
Plant response rating (scale of 0 to 100 where 0 is no effect and 100 is complete control) ([7]; Velvetleaf, preemergence, 250 g ai/ha): 60

COc1nc(-c2ccc(Cl)cc2)nn1Cc1ccnc(C(F)(F)F)c1 [Compound 28]
Plant response rating (0 to 100), Bromegrass, Down [8, 18]: 35
Plant response rating: Bromegrass, Down ([8]; 31 g ai/ha): 40
Plant response rating: Bromegrass, Down ([8]; 62 g ai/ha): 45
Plant response rating: Bromegrass, Down ([8]; 125 g ai/ha): 45
Plant response rating (0 to 100), Barley, Spring [9, 18]: 15
Plant response rating: Barley, Spring ([9]; 31 g ai/ha): 20
Plant response rating: Barley, Spring ([9]; 62 g ai/ha): 20
Plant response rating: Barley, Spring ([9]; 125 g ai/ha): 25
Plant response rating (0 to 100), Barley, Winter [10, 18]: 10
Plant response rating: Barley, Winter ([10]; 31 g ai/ha): 15
Plant response rating: Barley, Winter ([10]; 62 g ai/ha): 20
Plant response rating: Barley, Winter ([10]; 125 g ai/ha): 25
Plant response rating (0 to 100), Wheat, Spring [11, 18]: 10
Plant response rating: Wheat, Spring ([11]; 62 g ai/ha): 20
Plant response rating: Wheat, Spring ([11]; 125 g ai/ha): 25
Plant response rating (0 to 100), Wheat, Winter [12, 18]: 15
Plant response rating: Wheat, Winter ([12]; 62 g ai/ha): 25
Plant response rating: Wheat, Winter ([12]; 125 g ai/ha): 20
Plant response rating (0 to 100), Oat, Wild [13, 18]: 35
Plant response rating: Oat, Wild ([13]; 62 g ai/ha): 30
Plant response rating: Oat, Wild ([13]; 125 g ai/ha): 35
Plant response rating (0 to 100), Windgrass [14, 18]: 25
Plant response rating: Windgrass ([14]; 62 g ai/ha): 50
Plant response rating: Windgrass ([14]; 125 g ai/ha): 80
Plant response rating: Canarygrass ([15]; 16 g ai/ha): 25
Plant response rating: Canarygrass ([15]; 31 g ai/ha): 30
Plant response rating: Canarygrass ([15]; 62 g ai/ha): 45
Plant response rating: Canarygrass ([15]; 125 g ai/ha): 50
Plant response rating: Chickweed ([16]; 16 g ai/ha): 65
Plant response rating: Chickweed ([16]; 31 g ai/ha): 70
Plant response rating: Chickweed ([16]; 62 g ai/ha): 70
Plant response rating: Chickweed ([16]; 125 g ai/ha): 90
Plant response rating: Foxtail, Green ([17]; 16 g ai/ha): 25
Plant response rating: Foxtail, Green ([17]; 31 g ai/ha): 35
Plant response rating: Foxtail, Green ([17]; 62 g ai/ha): 60
Plant response rating: Foxtail, Green ([17]; 125 g ai/ha): 80
